Experimental data published in paper PMC3399817 (PLoS ONE, 2012).

Legend:
Experiment in all cases: KINOMEscan
Format in all cases: binding
[1] = biological target: T1, DMPK (Homo sapiens, UniProt Q09013); settings: 1 uM
T1 construct: purchased Ambit KINOMEscan (DiscoverX)
Method in brief: (§1)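 Kinases were scored for inhibited substrate binding in the presence of 1 μM compound; this served as the first-pass selectivity screen.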

[2] = biological target: T2, ACVR1 (Homo sapiens, UniProt Q04771); settings: ACVR1, 1 uM
T2 construct: purchased Ambit KINOMEscan (DiscoverX)
Method in brief: as §1

[3] = biological target: T3, FGR (Homo sapiens, UniProt P09769); settings: 1 uM
T3 construct: purchased Ambit KINOMEscan (DiscoverX)
Method in brief: as §1

[4] = biological target: T4, IGF1R (Homo sapiens, UniProt P08069); settings: 1 uM
T4 construct: purchased Ambit KINOMEscan (DiscoverX)
Method in brief: as §1

[5] = biological target: T5, NEK7 (Homo sapiens, UniProt Q8TDX7); settings: NEK7, 1 uM
T5 construct: purchased Ambit KINOMEscan (DiscoverX)
Method in brief: as §1

[6] = biological target: T6, DYRK1B (Homo sapiens, UniProt Q9Y463); settings: 1 uM
T6 construct: purchased Ambit KINOMEscan (DiscoverX)
Method in brief: as §1

[7] = biological target: T7, NDR1 (Homo sapiens, UniProt Q15208); settings: NDR1, 1 uM
T7 construct: purchased Ambit KINOMEscan (DiscoverX)
Method in brief: as §1

[8] = biological target: T8, CSNK1G3 (Homo sapiens, UniProt Q9Y6M4); settings: CSNK1G3, 1 uM
T8 construct: purchased Ambit KINOMEscan (DiscoverX)
Method in brief: as §1

[9] = biological target: T9, PRKD1 (Homo sapiens, UniProt Q15139); settings: PRKD1, 1 uM
T9 construct: purchased Ambit KINOMEscan (DiscoverX)
Method in brief: as §1

[10] = biological target: T10, TAOK3 (Homo sapiens, UniProt Q9H2K8); settings: TAOK3, 1 uM
T10 construct: purchased Ambit KINOMEscan (DiscoverX)
Method in brief: as §1

[11] = biological target: T11, YANK2 (Homo sapiens, UniProt Q9NY57); settings: YANK2, 1 uM
T11 construct: purchased Ambit KINOMEscan (DiscoverX)
Method in brief: as §1

[12] = biological target: T12, MLK2 (Homo sapiens, UniProt Q02779); settings: MLK2, 1 uM
T12 construct: purchased Ambit KINOMEscan (DiscoverX)
Method in brief: as §1

[13] = biological target: T13, CAMK1 (Homo sapiens, UniProt Q14012); settings: CAMK1, 1 uM
T13 construct: purchased Ambit KINOMEscan (DiscoverX)
Method in brief: as §1

[14] = biological target: T14, RPS6KA4(Kin.Dom.1-N-terminal) (Homo sapiens, UniProt O75676); settings: 1 uM
T14 construct: RPS6KA4(Kin.Dom.1-N-terminal); purchased Ambit KINOMEscan (DiscoverX)
Method in brief: as §1

[15] = biological target: T15, BMPR2 (Homo sapiens, UniProt Q13873); settings: BMPR2, 1 uM
T15 construct: purchased Ambit KINOMEscan (DiscoverX)
Method in brief: as §1

[16] = biological target: T16, PDPK1 (Homo sapiens, UniProt O15530); settings: PDPK1, 1 uM
T16 construct: purchased Ambit KINOMEscan (DiscoverX)
Method in brief: as §1

[17] = biological target: T17, ACVR2A (Homo sapiens, UniProt P27037); settings: 1 uM
T17 construct: purchased Ambit KINOMEscan (DiscoverX)
Method in brief: as §1

[18] = biological target: T18, ACVR2B (Homo sapiens, UniProt Q13705); settings: 1 uM
T18 construct: purchased Ambit KINOMEscan (DiscoverX)
Method in brief: as §1

[19] = biological target: T19, TYRO3 (Homo sapiens, UniProt Q06418); settings: TYRO3, 1 uM
T19 construct: purchased Ambit KINOMEscan (DiscoverX)
Method in brief: as §1

[20] = biological target: T20, FES (Homo sapiens, UniProt P07332); settings: 1 uM
T20 construct: purchased Ambit KINOMEscan (DiscoverX)
Method in brief: as §1

[21] = biological target: T21, KIT(V559D,T670I) (Homo sapiens, UniProt P10721, T670I/V559D); settings: 1 uM
T21 construct: purchased Ambit KINOMEscan (DiscoverX)
Method in brief: as §1

[22] = biological target: T22, AKT3 (Homo sapiens, UniProt Q9Y243); settings: AKT3, 1 uM
T22 construct: purchased Ambit KINOMEscan (DiscoverX)
Method in brief: as §1

[23] = biological target: T23, TIE2 (Homo sapiens, UniProt Q02763); settings: TIE2, 1 uM
T23 construct: purchased Ambit KINOMEscan (DiscoverX)
Method in brief: as §1

[24] = biological target: T24, CAMK2A (Homo sapiens, UniProt Q9UQM7); settings: 1 uM
T24 construct: purchased Ambit KINOMEscan (DiscoverX)
Method in brief: as §1

[25] = biological target: T25, CHEK1 (Homo sapiens, UniProt O14757); settings: CHEK1, 1 uM
T25 construct: purchased Ambit KINOMEscan (DiscoverX)
Method in brief: as §1

[26] = biological target: T26, SLK (Homo sapiens, UniProt Q9H2G2); settings: 1 uM
T26 construct: purchased Ambit KINOMEscan (DiscoverX)
Method in brief: as §1

[27] = biological target: T27, GRK4 (Homo sapiens, UniProt P32298); settings: GRK4, 1 uM
T27 construct: purchased Ambit KINOMEscan (DiscoverX)
Method in brief: as §1

[28] = biological target: T28, ADCK3 (Homo sapiens, UniProt Q8NI60); settings: ADCK3, 1 uM
T28 construct: purchased Ambit KINOMEscan (DiscoverX)
Method in brief: as §1

[29] = biological target: T29, PLK4 (Homo sapiens, UniProt O00444); settings: PLK4, 1 uM
T29 construct: purchased Ambit KINOMEscan (DiscoverX)
Method in brief: as §1

[30] = biological target: T30, PHKG1 (Homo sapiens, UniProt Q16816); settings: PHKG1, 1 uM
T30 construct: purchased Ambit KINOMEscan (DiscoverX)
Method in brief: as §1

[31] = biological target: T31, LIMK2 (Homo sapiens, UniProt P53671); settings: LIMK2, 1 uM
T31 construct: purchased Ambit KINOMEscan (DiscoverX)
Method in brief: as §1

[32] = biological target: T32, ROS1 (Homo sapiens, UniProt P08922); settings: ROS1, 1 uM
T32 construct: purchased Ambit KINOMEscan (DiscoverX)
Method in brief: as §1

[33] = biological target: T33, ERK4 (Homo sapiens, UniProt P31152); settings: ERK4, 1 uM
T33 construct: purchased Ambit KINOMEscan (DiscoverX)
Method in brief: as §1

[34] = biological target: T34, MERTK (Homo sapiens, UniProt Q12866); settings: 1 uM
T34 construct: purchased Ambit KINOMEscan (DiscoverX)
Method in brief: as §1

[35] = biological target: T35, PKN1 (Homo sapiens, UniProt Q16512); settings: PKN1, 1 uM
T35 construct: purchased Ambit KINOMEscan (DiscoverX)
Method in brief: as §1

[36] = biological target: T36, YSK4 (Homo sapiens, UniProt Q56UN5); settings: YSK4, 1 uM
T36 construct: purchased Ambit KINOMEscan (DiscoverX)
Method in brief: as §1

[37] = biological target: T37, WEE2 (Homo sapiens, UniProt P0C1S8); settings: WEE2, 1 uM
T37 construct: purchased Ambit KINOMEscan (DiscoverX)
Method in brief: as §1

[38] = biological target: T38, JAK3(JH1domain-catalytic) (Homo sapiens, UniProt P52333); settings: 1 uM
T38 construct: JAK3(JH1domain-catalytic); purchased Ambit KINOMEscan (DiscoverX)
Method in brief: as §1

[39] = biological target: T39, TGFBR2 (Homo sapiens, UniProt P37173); settings: TGFBR2, 1 uM
T39 construct: purchased Ambit KINOMEscan (DiscoverX)
Method in brief: as §1

T7 sequence (Q15208 whole entry): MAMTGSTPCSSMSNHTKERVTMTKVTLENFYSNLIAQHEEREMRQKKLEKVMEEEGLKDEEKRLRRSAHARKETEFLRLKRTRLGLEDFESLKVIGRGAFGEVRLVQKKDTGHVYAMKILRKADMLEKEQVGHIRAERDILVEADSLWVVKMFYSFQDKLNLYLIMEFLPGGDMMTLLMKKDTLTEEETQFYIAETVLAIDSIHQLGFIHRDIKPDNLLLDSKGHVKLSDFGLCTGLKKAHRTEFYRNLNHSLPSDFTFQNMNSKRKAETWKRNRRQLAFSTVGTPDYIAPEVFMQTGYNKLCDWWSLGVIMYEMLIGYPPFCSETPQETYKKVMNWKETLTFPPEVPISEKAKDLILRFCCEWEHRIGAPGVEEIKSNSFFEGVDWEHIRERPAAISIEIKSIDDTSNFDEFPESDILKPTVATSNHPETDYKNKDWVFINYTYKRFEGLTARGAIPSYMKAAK
T36 sequence (Q56UN5 whole entry): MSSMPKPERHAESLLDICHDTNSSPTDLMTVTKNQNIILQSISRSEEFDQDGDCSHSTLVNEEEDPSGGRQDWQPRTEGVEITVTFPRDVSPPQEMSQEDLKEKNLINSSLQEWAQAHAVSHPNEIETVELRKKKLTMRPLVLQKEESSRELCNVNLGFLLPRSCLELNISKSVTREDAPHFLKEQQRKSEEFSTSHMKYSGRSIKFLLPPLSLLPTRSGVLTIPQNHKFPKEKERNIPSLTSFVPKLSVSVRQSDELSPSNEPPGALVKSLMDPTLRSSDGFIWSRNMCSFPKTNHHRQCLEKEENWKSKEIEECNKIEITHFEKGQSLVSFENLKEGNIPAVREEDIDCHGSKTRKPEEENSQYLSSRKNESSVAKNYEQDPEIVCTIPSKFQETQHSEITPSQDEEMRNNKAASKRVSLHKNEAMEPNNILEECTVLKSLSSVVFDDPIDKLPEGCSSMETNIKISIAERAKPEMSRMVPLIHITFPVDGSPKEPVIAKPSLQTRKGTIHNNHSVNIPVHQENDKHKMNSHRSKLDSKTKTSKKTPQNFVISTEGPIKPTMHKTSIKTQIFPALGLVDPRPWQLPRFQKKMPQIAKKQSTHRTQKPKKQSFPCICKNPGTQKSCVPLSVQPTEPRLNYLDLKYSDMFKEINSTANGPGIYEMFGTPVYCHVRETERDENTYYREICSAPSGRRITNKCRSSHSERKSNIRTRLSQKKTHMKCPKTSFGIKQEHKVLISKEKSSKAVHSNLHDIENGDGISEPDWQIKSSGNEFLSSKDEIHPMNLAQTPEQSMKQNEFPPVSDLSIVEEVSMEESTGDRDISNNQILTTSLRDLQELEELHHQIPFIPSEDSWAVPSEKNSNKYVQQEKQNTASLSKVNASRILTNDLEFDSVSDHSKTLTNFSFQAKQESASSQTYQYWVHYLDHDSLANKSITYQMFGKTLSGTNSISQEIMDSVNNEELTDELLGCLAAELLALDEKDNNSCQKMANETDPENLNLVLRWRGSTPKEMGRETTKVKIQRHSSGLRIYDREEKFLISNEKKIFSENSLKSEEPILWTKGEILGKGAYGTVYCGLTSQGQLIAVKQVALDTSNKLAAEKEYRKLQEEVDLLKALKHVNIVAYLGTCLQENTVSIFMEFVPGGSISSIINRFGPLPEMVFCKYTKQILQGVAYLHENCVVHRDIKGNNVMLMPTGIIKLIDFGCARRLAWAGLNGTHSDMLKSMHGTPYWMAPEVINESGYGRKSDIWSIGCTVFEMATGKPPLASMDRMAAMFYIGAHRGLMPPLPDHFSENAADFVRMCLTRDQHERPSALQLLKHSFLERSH
T28 sequence (Q8NI60 163-647): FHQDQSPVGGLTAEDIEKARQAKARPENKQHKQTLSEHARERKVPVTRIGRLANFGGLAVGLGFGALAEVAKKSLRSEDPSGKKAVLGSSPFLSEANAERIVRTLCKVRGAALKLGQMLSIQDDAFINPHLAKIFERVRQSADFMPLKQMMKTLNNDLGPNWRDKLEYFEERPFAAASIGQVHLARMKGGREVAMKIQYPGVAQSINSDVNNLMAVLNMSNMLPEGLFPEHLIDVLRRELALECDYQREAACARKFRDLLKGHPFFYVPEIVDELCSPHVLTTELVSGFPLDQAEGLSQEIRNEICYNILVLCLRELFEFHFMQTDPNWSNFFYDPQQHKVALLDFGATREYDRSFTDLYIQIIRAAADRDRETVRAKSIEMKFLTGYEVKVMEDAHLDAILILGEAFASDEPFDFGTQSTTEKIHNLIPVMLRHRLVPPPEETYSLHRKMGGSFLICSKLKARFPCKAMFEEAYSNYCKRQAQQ
T22 sequence (Q9Y243 whole entry): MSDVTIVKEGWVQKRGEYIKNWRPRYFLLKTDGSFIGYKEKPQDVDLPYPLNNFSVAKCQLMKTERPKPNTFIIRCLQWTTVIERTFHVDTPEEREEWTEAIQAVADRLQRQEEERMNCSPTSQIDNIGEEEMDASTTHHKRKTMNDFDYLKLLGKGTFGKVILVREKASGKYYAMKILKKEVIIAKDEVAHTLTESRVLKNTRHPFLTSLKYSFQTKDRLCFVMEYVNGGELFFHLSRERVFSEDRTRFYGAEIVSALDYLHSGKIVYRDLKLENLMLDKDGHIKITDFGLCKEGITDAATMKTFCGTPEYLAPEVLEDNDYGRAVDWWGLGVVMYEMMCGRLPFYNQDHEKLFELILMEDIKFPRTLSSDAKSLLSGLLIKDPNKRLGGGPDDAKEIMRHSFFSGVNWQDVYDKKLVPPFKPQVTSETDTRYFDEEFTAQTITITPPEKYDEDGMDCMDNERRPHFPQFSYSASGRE
T11 sequence (Q9NY57 whole entry): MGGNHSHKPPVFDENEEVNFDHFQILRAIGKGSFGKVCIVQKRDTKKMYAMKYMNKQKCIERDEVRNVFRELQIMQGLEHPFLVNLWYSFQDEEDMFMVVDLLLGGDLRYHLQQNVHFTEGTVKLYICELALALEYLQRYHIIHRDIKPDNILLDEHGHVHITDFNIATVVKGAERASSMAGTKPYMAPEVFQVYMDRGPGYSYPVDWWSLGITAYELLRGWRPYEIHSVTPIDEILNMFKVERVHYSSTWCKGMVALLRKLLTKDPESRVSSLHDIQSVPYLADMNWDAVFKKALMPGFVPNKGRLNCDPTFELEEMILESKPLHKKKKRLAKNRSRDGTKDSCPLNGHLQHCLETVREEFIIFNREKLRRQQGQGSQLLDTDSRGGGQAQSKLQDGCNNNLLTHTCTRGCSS
T26 sequence (Q9H2G2 whole entry): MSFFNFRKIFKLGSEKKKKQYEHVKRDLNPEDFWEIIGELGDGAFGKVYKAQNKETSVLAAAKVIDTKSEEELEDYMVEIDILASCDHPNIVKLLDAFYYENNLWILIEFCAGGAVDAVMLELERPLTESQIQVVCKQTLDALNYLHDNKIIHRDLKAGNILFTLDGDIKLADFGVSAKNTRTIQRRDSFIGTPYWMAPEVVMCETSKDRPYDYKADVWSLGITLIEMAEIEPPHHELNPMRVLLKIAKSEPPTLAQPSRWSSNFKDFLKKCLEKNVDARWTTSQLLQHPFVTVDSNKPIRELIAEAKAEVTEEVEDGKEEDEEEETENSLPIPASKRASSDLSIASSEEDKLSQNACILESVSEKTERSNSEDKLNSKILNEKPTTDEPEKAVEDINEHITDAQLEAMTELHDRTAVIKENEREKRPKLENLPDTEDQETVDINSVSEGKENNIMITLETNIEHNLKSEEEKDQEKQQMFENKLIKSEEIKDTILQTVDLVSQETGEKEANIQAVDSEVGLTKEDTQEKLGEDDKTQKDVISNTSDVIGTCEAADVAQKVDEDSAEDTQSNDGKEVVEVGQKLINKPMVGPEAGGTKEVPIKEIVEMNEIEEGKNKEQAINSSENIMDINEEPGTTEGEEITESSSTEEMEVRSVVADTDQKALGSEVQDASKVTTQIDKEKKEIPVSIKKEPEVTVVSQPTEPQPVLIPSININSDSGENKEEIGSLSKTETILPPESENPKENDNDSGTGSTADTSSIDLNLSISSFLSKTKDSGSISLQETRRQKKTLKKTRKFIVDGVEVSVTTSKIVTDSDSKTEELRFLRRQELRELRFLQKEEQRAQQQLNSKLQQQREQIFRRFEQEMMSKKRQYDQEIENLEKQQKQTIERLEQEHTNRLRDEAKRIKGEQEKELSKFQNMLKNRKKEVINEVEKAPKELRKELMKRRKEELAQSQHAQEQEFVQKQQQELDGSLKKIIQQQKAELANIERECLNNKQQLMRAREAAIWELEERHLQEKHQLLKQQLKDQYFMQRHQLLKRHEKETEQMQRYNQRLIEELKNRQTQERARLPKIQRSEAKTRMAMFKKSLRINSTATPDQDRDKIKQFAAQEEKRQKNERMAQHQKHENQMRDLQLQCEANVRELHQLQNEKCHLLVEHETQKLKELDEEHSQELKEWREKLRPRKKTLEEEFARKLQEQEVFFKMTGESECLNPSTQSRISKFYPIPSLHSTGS
T17 sequence (P27037 20-513): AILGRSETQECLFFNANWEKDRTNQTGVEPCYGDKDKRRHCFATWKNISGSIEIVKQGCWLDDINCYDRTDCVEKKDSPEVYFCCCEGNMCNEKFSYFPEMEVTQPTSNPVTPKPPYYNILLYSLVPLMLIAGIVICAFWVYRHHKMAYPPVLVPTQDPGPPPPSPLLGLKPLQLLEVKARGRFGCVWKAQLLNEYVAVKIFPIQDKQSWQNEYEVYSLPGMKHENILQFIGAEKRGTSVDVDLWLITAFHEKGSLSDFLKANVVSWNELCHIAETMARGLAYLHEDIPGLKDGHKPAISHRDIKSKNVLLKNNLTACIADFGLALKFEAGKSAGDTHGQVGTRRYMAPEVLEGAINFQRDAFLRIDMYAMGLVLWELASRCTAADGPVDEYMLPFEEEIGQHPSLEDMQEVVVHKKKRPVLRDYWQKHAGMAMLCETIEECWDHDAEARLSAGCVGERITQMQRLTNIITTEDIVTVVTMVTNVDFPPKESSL

COc1ccc(-c2cc3nccn3c(Nc3ncccc3C(N)=O)n2)cc1OC.Cl.Cl [BAY61-3606, 2-[7-(3,4-dimethoxyphenyl)-imidazo [1,2-c]pyrimidin-5-ylamino] nicotinamide dihydrochloride, reference compound]
% binding compared to no inhibitor control [1]: 72% | % binding compared to no inhibitor control [2]: 78% | % binding compared to no inhibitor control [3]: 80% | % binding compared to no inhibitor control [4]: 97% | % binding compared to no inhibitor control [5]: 60% | % binding compared to no inhibitor control [6]: 81% | % binding compared to no inhibitor control [7]: 80% | % binding compared to no inhibitor control [8]: 81% | % binding compared to no inhibitor control [9]: 39% | % binding compared to no inhibitor control [10]: 100% | % binding compared to no inhibitor control [11]: 86% | % binding compared to no inhibitor control [12]: 91% | % binding compared to no inhibitor control [13]: 62% | % binding compared to no inhibitor control [14]: 32% | % binding compared to no inhibitor control [15]: 46% | % binding compared to no inhibitor control [16]: 99% | % binding compared to no inhibitor control [17]: 100% | % binding compared to no inhibitor control [18]: 77% | % binding compared to no inhibitor control [19]: 94% | % binding compared to no inhibitor control [20]: 88% | % binding compared to no inhibitor control [21]: 9.3% | % binding compared to no inhibitor control [22]: 90% | % binding compared to no inhibitor control [23]: 100% | % binding compared to no inhibitor control [24]: 64% | % binding compared to no inhibitor control [25]: 100% | % binding compared to no inhibitor control [26]: 58% | % binding compared to no inhibitor control [27]: 73% | % binding compared to no inhibitor control [28]: 99% | % binding compared to no inhibitor control [29]: 35% | % binding compared to no inhibitor control [30]: 79% | % binding compared to no inhibitor control [31]: 98% | % binding compared to no inhibitor control [32]: 45% | % binding compared to no inhibitor control [33]: 87% | % binding compared to no inhibitor control [34]: 78% | % binding compared to no inhibitor control [35]: 47% | % binding compared to no inhibitor control [36]: 1.8% | % binding compared to no inhibitor control [37]: 100% | % binding compared to no inhibitor control [38]: 100% | % binding compared to no inhibitor control [39]: 31%

COc1ccccc1Nc1nc(-c2ccc(OC)c(OC)c2)cc2nccn12 [BAY derivative 6]
% binding compared to no inhibitor control [1]: 100% | % binding compared to no inhibitor control [2]: 98% | % binding compared to no inhibitor control [3]: 54% | % binding compared to no inhibitor control [4]: 79% | % binding compared to no inhibitor control [5]: 100% | % binding compared to no inhibitor control [6]: 57% | % binding compared to no inhibitor control [7]: 100% | % binding compared to no inhibitor control [8]: 100% | % binding compared to no inhibitor control [9]: 100% | % binding compared to no inhibitor control [10]: 100% | % binding compared to no inhibitor control [11]: 100% | % binding compared to no inhibitor control [12]: 100% | % binding compared to no inhibitor control [13]: 100% | % binding compared to no inhibitor control [14]: 74% | % binding compared to no inhibitor control [15]: 87% | % binding compared to no inhibitor control [16]: 100% | % binding compared to no inhibitor control [17]: 100% | % binding compared to no inhibitor control [18]: 100% | % binding compared to no inhibitor control [19]: 67% | % binding compared to no inhibitor control [20]: 100% | % binding compared to no inhibitor control [21]: 87% | % binding compared to no inhibitor control [22]: 100% | % binding compared to no inhibitor control [23]: 100% | % binding compared to no inhibitor control [24]: 96% | % binding compared to no inhibitor control [25]: 90% | % binding compared to no inhibitor control [26]: 28% | % binding compared to no inhibitor control [27]: 100% | % binding compared to no inhibitor control [28]: 87% | % binding compared to no inhibitor control [29]: 100% | % binding compared to no inhibitor control [30]: 100% | % binding compared to no inhibitor control [31]: 89% | % binding compared to no inhibitor control [32]: 36% | % binding compared to no inhibitor control [33]: 100% | % binding compared to no inhibitor control [34]: 100% | % binding compared to no inhibitor control [35]: 100% | % binding compared to no inhibitor control [36]: 60% | % binding compared to no inhibitor control [37]: 100% | % binding compared to no inhibitor control [38]: 100% | % binding compared to no inhibitor control [39]: 100%
